Laboratory results taken from patent publication US20120270293A1, “STAND[…] TISSUE SPECIMEN PR[…] […] T[…]” (priority 2009, published 2012).

Target: RNase A (Bos taurus, UniProt P61823)
Settings: free solution reaction
Description: FIG. 13. RNase A at designated amount was incubated with NBF at RT or 4° C. for 5 min and then mixed with 2 μg yeast tRNA and incubated at room temperature for 30 min for RNase A digestion and separated by 2% agarose gel. The tRNA molecules were between 50-100 nucleotides in length.
We have designed a series of direct forward biochemistry experiments to compare various chemical reagents such as formalin, RNA Later, methanol/alcohol, as well as heating conditions (boiling or autoclaving) in inhibiting the RNase bioactivity. […] We also compare the inhibition ability of formalin at room temperature and 4 degree C.

Sequence of RNase A (P61823 27-150): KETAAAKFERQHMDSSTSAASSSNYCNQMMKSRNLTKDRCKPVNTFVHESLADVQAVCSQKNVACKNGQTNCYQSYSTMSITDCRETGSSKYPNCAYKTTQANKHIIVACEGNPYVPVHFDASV

SMILES: C=O [formalin]
- inhibiting the RNase bioactivity (compared with RNA Later, methanol/alcohol, boiling or autoclaving): best RNase inhibitor
- inhibition ability of formalin at room temperature and 4 degree C (room temperature versus 4 degree C): No difference
